The record followed here is patent publication US8999661B2, “Compositions for detecting cell death and methods of use thereof” (Dana-Farber Cancer Institute, Inc., priority 2008, dated 2015).

One assay relates to hepatocyte apoptosis. As to the kind of experiment: In vivo NIR imaging of fulminant hepatic failure (anti-Fas antibody). Also on record: species or system mice. The conditions noted are these: liver region; 10 μg probe; 25 hrs after probe injection. On the procedure: This model was used to compare LDH to Annexin V for near infrared (NIR) imaging of apoptosis. Alexa750-NHS was conjugated to Annexin V (Biovision) and chicken LDHB (XpressBio) at a labeling ratio of 2:1 per mole of protein based on prior optimization. A total of 10 male NCr nude mice were injected with 5 μg of anti-Fas antibody (Jo2, Pharmingen), and 10 animals were injected with 5 μg of an isotype-matched control antibody. Two hours later, mice were injected with 10 μg of either LDH-Alexa750 or Annexin V-Alexa750. Mice underwent NIR fluorescence imaging (IVIS Spectrum, Caliper) 25 hrs after probe injection (FIG. 8A). After spectral unmixing and background subtraction (Living Images software package), regions of interest were used to quantify fluorescence localized to the liver region (FIG. 8A), as indicated with arrowheads.

Assay [1] has as its system Ku812-Luc+ (BCR-ABL+CML blast crisis) cells. The experiment in a line: In vivo imaging of chemotherapy-induced apoptosis (AMN107). Set-up: species or system mice. The settings on record: 20 μg probe after 3 doses of AMN107. On the procedure: Subcutaneous tumors were established using Ku812-Luc+ (BCR-ABL+CML blast crisis) cells in NCr nude mice. When tumors were ˜1 cm, mice underwent bioluminescence imaging (BLI) to determine baseline tumor burden, followed by treatment with either AMN107 (nilotinib) at 100 mg/kg intraperitoneally (IP), or with vehicle. After 3 doses, animals were injected with 20 μg of LDH-Alexa750. Fluorescence imaging (FL) was performed 24 and 48 hrs after probe injection (day 4 and 5 of treatment) and BLI was repeated on day 5 of treatment (FIG. 9A).

Another assay relates to HeLa cells. The experiment in a line: FACS staining of camptothecin-treated apoptotic HeLa cells. The format is cell-based. Here is the method:
HeLa cells (5×10^5 in 10 cm plates) maintained in DMEM with 10% FBS were contacted with 5 μM camptothecin to induce apoptosis. Cell staining by FITC-labeled Annexin V (Abcam, Cambridge, Mass.) or Cy5.5-labeled chicken LDH (1 μL) prepared as described in Example 1, was measured by fluorescence-activated cell sorting (FACS) analysis (with cells in annexin binding buffer (Abcam)) 12 h, 24 h, and 48 h later. Untreated HeLa cells served as negative controls.
Staining by Annexin V is known to require the presence of calcium. […] HeLa cells treated with camptothecin to induce apoptosis as in Example 9 were stained with FITC-labeled Annexin V (Abcam, Cambridge, Mass.) or Cy5.5-labeled chicken LDH in calcium-containing Annexin buffer or in calcium-free PBS. Stained cells were analyzed by FACS analysis as in Example 9.
HeLa cells (5×10^5 in 10 cm plates) maintained in DMEM with 10% FBS were contacted with 5 μM camptothecin to induce apoptosis. Cell staining was done in the media: (i) annexin buffer, (ii) DMEM supplemented with 1% FBS; (iii) DMEM supplemented with 2% FBS; (iii) DMEM supplemented with 5% FBS; (iv) DMEM supplemented with 10% FBS. For cell staining FITC-labeled Annexin V (Abcam, Cambridge, Mass.) or Cy5.5-labeled chicken LDH (1 μL) prepared as described in Example 1, was used to for FACS analysis (cells in annexin binding buffer (Abcam)) 48 h later. Untreated HeLa cells served as negative controls. […]

For the next assay, the system named is THP-1 cells. The experiment in a line: Staining of THP-1 cells treated with HDAC inhibitor LAQ824. The assay is classed as cell-based. The settings on record: THP-1, LAQ824 50 nM, 18 hrs. Here is the method: To correlate cLDHB staining with other measures of apoptosis, a fluorescent probe that binds to activated caspases (pan-caspase-FLICA, Immunochemistry Tech) was used. THP-1 cells were treated with the HDAC inhibitor LAQ824 (50 nM, 18 hrs) to induce apoptosis.
Similarly, we asked whether the […] proteins performed comparably to purified recombinant LDH.

Assay [2] has as its system apoptotic cells. The experiment in a line: Staining requirements (temperature, calcium) of cLDHB and Annexin V. The format is cell-based. Here is the method: To determine if cLDHB is actively transported into cells, staining was performed at room temperature and at 4° C.
A major limitation of Annexin V staining is the requirement for supra-physiological concentrations of calcium (Tait, J. F., D. F. Gibson, and C. Smith, Anal Biochem, 2004. 329: 112-9). To determine whether cLDHB staining required calcium, Annexin V and cLDHB staining was performed in PBS (without calcium or magnesium) or in Annexin Binding Buffer (with 2.5 mM calcium).

The test system of assay [3] is apoptotic cells. As to the kind of experiment: Homogeneous multiwell apoptosis assay in normal growth medium. The conditions noted are these: e.g., RPMI with 10% FBS, flow cytometry or High-Content Microscopy. The format is cell-based. (A flow cytometer gives signals particle by particle.)
In assay [4] the test system is adherent and suspension cancer cell lines (e.g., HeLa, RS(4;11), THP-1, MDA-MB231). As to the kind of experiment: Concordance of Annexin V and cLDHB staining across cancer cell lines. The assay is classed as cell-based. The settings on record: apoptosis induced by camptothecin, doxorubicin, HDAC inhibitors.
Assay [5] relates to non-transformed rat cardiomyocytes. The experiment in a line: Concordance of staining in doxorubicin-treated cardiomyocytes. The settings on record: apoptosis induced with doxorubicin. The assay is classed as cell-based.

Take “LDH-Alexa750: chicken LDHB (XpressBio) conjugated to Alexa750-NHS at a labeling ratio of 2:1”: the “mean signal intensity (photons/sec/ROI) of anti-Fas antibody treated animals above IgG control antibody treated animals” value with hepatocyte apoptosis is recorded as 4.2 fold. Besides, in assay [1], the “NIR fluorescence signal from the tumors in AMN107-treated animals compared to vehicle-treated controls” value is given as above 4 fold.
Consider “cLDHB: chicken LDHB used as fluorescently labeled probe; fluorochrome not stated at the place”, for which the “change of staining with increasing amounts of FBS (FACS)” value in the assay with HeLa cells (HeLa treated with camptothecin) is recorded as “no significant changes”. Moreover, the “stability of staining after washing” value in the assay with HeLa cells (washed with 6 changes of PBS) is “entirely stable”. Besides, the “staining of live cells negative for FLICA staining” value in the assay with THP-1 cells was “negative”. In addition, in the assay on apoptotic cells [2], the “staining at room temperature versus 4° C.” value is recorded as “Identical results” and the “staining in PBS (without calcium or magnesium) compared to Annexin Binding Buffer (2.5 mM calcium)” value is “identical under both conditions”. Besides, the “staining / quantification of apoptosis with probe added directly to normal growth medium” value with apoptotic cells [3] is listed as “apoptosis can be quantified”. The “concordance in staining with Annexin V” value in assay [4] is “concordance in staining”. For the same molecule, the “concordance in staining with Annexin V” value in assay [5] was “Concordant staining”.

B1: Annexin V-Alexa750: Annexin V (Biovision) conjugated to Alexa750-NHS at a labeling ratio of 2:1 (conjugate, UniProt P08758 2-320, looked up)
Annexin A5: AQVLRGTVTDFPGFDERADAETLRKAMKGLGTDEESILTLLTSRSNAQRQEISAAFKTLFGRDLLDDLKSELTGKFEKLIVALMKPSRLYDAYELKHALKGAGTNEKVLTEIIASRTPEELRAIKQVYEEEYGSSLEDDVVGDTSGYYQRMLVVLLQANRDPDAGIDEAQVEQDAQALFQAGELKWGTDEEKFITIFGTRSVSHLRKVFDKYMTISGFQIEETIDRETSGNLEQLLLAVVKSIRSIPAYLAETLYYAMKGAGTDDHTLIRVMVSRSEIDLFNIRKEFRKNFATSLYSMIKGDTSGDYKKALLLLCGEDD
modifications: Alexa Fluor 750 label
In the case of B1, the “mean signal intensity (photons/sec/ROI) of anti-Fas antibody treated animals above IgG control antibody treated animals” value in the assay with hepatocyte apoptosis is 1.8 fold.
